Measured values published in patent US12018305B2, “Process for production of nigericin from Streptomyces sp. MCC-0151” (Council of Scientific & Industrial Research, priority 2018, dated 2024).
pEC50, pIC50: −log10 of the molar value. ≈ marks a conversion by molar mass, not a printed value. Where two headings read alike, the source gives them in different places.

Legend:
murine splenocytes = assay type: cell-based
Excerpt: FIG. 3 depicts a comparison of the in-vitro toxicity of nigericin isolated from Streptomyces sp. MCC-0151 and commercially available Nigericin on murine splenocytes. ‘▴’ represents nigericin from Streptomyces sp. MCC 0151 and ‘▾’ represents standard Nigericin.
MCCO151 and Sigma standard nigericin. Nigericin produced from Streptomyces sp.

[1] = system: Listeria monocytogenes (ATCC 19111); test: Antibacterial activity (MIC) against Listeria monocytogenes; assay type: cell-based; conditions: ATCC19111, range stated over five gram-positive microorganisms, read-out: minimum inhibitory concentration (MIC)
Excerpt: (§1) FIG. 1A depicts the inhibition of S. aureus growth at varying concentrations of nigericin from Streptomyces sp. MCC-0151. FIG. 1B depicts the antibacterial activity of nigericin from Streptomyces sp. MCC0151 against S. aureus.

Sprague-Dawley rats = test: 14-day repeated intraperitoneal dose toxicity in Sprague-Dawley rats; assay type: in vivo; conditions: for mortality: female rats, 5 mg/kg/day IP, before Day 14, 5 mg/kg/day
Description: (§2) A 14-day repeat-intraperitoneal administration protocol was used for carrying out toxicokinetic studies with nigericin. Male and female animals were divided into three groups each based on the dose of nigericin administered (0.5, 1.5 and 5 mg/kg/day). Each group received the administration of the compound at the same dose every day for 14 days. The toxicokinetic parameters were quantified following the first (i.e., day-1) and last (i.e., day-14) administration of nigericin, and the findings are tabulated in Table-3. Following administration on day-1, nigericin was quantifiable in the plasma of the animals for up to 24 h, in all three dose-categories, in both genders. After the administration of the second dose on day-14, plasma concentrations were quantifiable up to 8 h for 0.5 mg/kg/day dose category and up to 24 h for 1.5 mg/kg/day dose category, in both genders.
The 5 mg/kg/day was lethal in females.

[2] = system: Staphylococcus epidermidis (ATCC 12228); test: Antibacterial activity (MIC) against Staphylococcus epidermidis; assay type: cell-based; conditions: ATCC12228, range stated over five gram-positive microorganisms, read-out: minimum inhibitory concentration (MIC)
[3] = Toxicokinetic study, 14-day repeated intraperitoneal administration in Sprague-Dawley rats; assay type: in vivo; conditions: for Tmax / AUClast / Cmax / AUC(0-t) / Cmax at 14 day / Tmax at 14 day: Sprague-Dawley, ip; for AUC(0-t): AUClast
Description: as §2

[4] = system: Bacillus cereus (ATCC 11778); test: Antibacterial activity (MIC) against Bacillus cereus; assay type: cell-based; conditions: ATCC11778, range stated over five gram-positive microorganisms, read-out: minimum inhibitory concentration (MIC)
P. falciparum strain 3D7 = test: Antimalarial activity: inhibition of blood-stage malaria parasite growth (SybrGreen I); assay type: cell-based; conditions: Plasmodium falciparum, 60 h incubation
Description: Asexual stage of P. falciparum strain 3D7 (received as a gift from collaborator team) was maintained under standard conditions at 2% hematocrit with 0+ human erythrocytes (Blood obtained from Poona Serological Trust Blood Bank, Pune) in RPMI1640 containing 15 mM HEPES, 50 mg/L Gentamicin sulfate 10 mg/L hypoxanthine, 2 g/L sodium bicarbonate (Sigma-Aldrich) and 2.5 g/L AlbuMAX II (Thermo Fisher Scientific). Parasites were synchronized using 5% sorbitol (Sigma-Aldrich) for the enrichment of ring-stage parasite. In brief, P. falciparum cultures were collected by centrifugation at 1,000 g for 5 min at 25° C. and the parasitized RBC pellet was resuspended 5% sorbitol, followed by incubation at 37° C. for 10 min. Following incubation, the cells were pelleted and washed with complete medium, prior to placing the parasites back into culture flasks at 2% hematocrit and 2% parasitemia.
Assays were typically set up in 96-well plate format and 2% of parasitized culture was used per well. The stock solution of the nigericin was prepared in DMSO, and so 0.5% DMSO (equivalent to the DMSO present in the nigericin-treated samples) treatment was used as a control. […]

in vivo = test: in vivo; set-up: species or system Sprague Dawley rats; conditions: male, Sprague Dawley, rat
Description: Oral solution bioavailability was 2%.
Plasma Pharmacokinetics study of Nigericin was carried out using three different routes of administration i.e. Intravenous (IV), Oral (O) and Intraperitoneal (IP). Based on above study, the intraperitoneal route of administration was selected to study the toxicokinetic profiling of Nigericin.

[5] = system: Staphylococcus aureus (ATCC 29737); test: Antibacterial activity (MIC) against Staphylococcus aureus; assay type: cell-based
Excerpt: as §1

[6] = system: Micrococcus luteus (ATCC 11880); test: Antibacterial activity (MIC) against Micrococcus luteus; assay type: cell-based; conditions: ATCC11880, range stated over five gram-positive microorganisms, read-out: minimum inhibitory concentration (MIC)
Excerpt: as §1

[7] = 14-day repeated IP, conclusion of study
[8] = female, rat, in vivo, 0.5 mg/kg/day
[9] = female, rat, in vivo, 1.5 mg/kg/day
[10] = male, rat, in vivo, 0.5 mg/kg/day, Cmax
[11] = male, rat, in vivo, 0.5 mg/kg/day, Tmax
[12] = male, rat, in vivo, 1.5 mg/kg/day
[13] = male, rat, in vivo, 1.5 mg/kg/day, Cmax
[14] = male, rat, in vivo, 1.5 mg/kg/day, Tmax
[15] = male, rat, in vivo, 5 mg/kg/day
[16] = male, rat, in vivo, 5 mg/kg/day, Cmax
[17] = male, rat, in vivo, 5 mg/kg/day, Tmax

SMILES: CO[C@@H]1C[C@@H](C[C@H]2CC[C@H](C)[C@H]([C@@H](C)C(=O)O)O2)O[C@]2(O[C@](C)([C@H]3CC[C@@](C)([C@@H]4O[C@@H]([C@H]5O[C@@](O)(CO)[C@H](C)C[C@@H]5C)C[C@@H]4C)O3)C[C@H]2C)[C@@H]1C [nigericin]
- toxicity against murine splenocytes compared to commercially available nigericin (Sigma) (murine splenocytes): no statistically significant difference
- MIC [1]: 0.25 to 0.5 µM (≈ 0.181 to 0.362 µg/mL)
- abnormal clinical signs (Sprague-Dawley rats; 0.5 mg/kg/day IP, 14 consecutive days): did not result in abnormal clinical signs
- dose that can be lethal (Sprague-Dawley rats; [7]): above 5 mg/kg
- dose that will not cause any clinical adversity (Sprague-Dawley rats; [7]): < 1.5 mg/kg
- mortality (Sprague-Dawley rats): Mortality was observed
- mortality (Sprague-Dawley rats; listed as Nigericin): lethal
- mortalities (Sprague-Dawley rats; up to 1.5 mg/kg/day IP, 14 consecutive days): did not result in
- effect on ophthalmoscopy, coagulation, urinalysis and reticulocytes count (Sprague-Dawley rats; up to highest surviving dose 1.5 mg/kg/day IP): no test item related effect
- MIC [2]: 0.25 to 0.5 µM (≈ 0.181 to 0.362 µg/mL)
- male/female exposure ratio (AUClast) ([3]; Day 1, 0.5 mg/kg/day): 2.11
- male/female exposure ratio (AUClast) ([3]; Day 1, 1.5 mg/kg/day): 0.68
- male/female exposure ratio (AUClast) ([3]; Day 1, 5 mg/kg/day): 1.15
- male/female exposure ratio (AUClast) ([3]; Day 14, 0.5 mg/kg/day): 0.90
- male/female exposure ratio (AUClast) ([3]; Day 14, 1.5 mg/kg/day): 1.21
- Tmax ([3]; rat, in vivo, Mean Tmax across the doses): 4.8 to 25.2 min
- accumulation following repeated intraperitoneal dose administration ([3]; across the doses, both genders): No trend of accumulation
- quantifiable in plasma for up to ([3]; day-1, all three doses (0.5, 1.5, 5 mg/kg/day IP), both genders): up to 24 h
- accumulation ratio (AUClast) on Day 14 ([3]; female, 0.5 mg/kg/day): 1.04
- accumulation ratio (AUClast) on Day 14 ([3]; female, 1.5 mg/kg/day): 0.51
- Dose exposure ratio ([3]; female, Day 1, dose increase 0.5 to 1.5 mg/kg/day): 5.91
- Dose exposure ratio ([3]; female, Day 1, dose increase 1.5 to 5 mg/kg/day): 2.33
- Dose exposure ratio ([3]; female, Day 14, dose increase 0.5 to 1.5 mg/kg/day): 2.89
- AUClast [3, 8]: 549.87 ng·h/mL
- Cmax [3, 8]: 222.17 ng/mL
- AUC(0-t) [3, 8]: 527 ng·h/mL
- Cmax ([3]; female, rat, in vivo, 0.5 mg/kg/day, Cmax): 188 ng/mL
- Tmax ([3]; female, rat, in vivo, 0.5 mg/kg/day, Tmax): 19.8 min
- AUClast [3, 9]: 1589.38 ng·h/mL
- Cmax [3, 9]: 710.63 ng/mL
- AUC(0-t) [3, 9]: 3120 ng·h/mL
- Cmax ([3]; female, rat, in vivo, 1.5 mg/kg/day, Cmax): 840 ng/mL
- AUC(0-t) ([3]; female, rat, in vivo, 5 mg/kg/day): 7260 ng·h/mL
- Cmax ([3]; female, rat, in vivo, 5 mg/kg/day, Cmax): 2440 ng/mL
- Tmax ([3]; female, rat, in vivo, 5 mg/kg/day, Tmax): 19.8 min
- accumulation ratio (AUClast) on Day 14 ([3]; male, 0.5 mg/kg/day): 0.44
- accumulation ratio (AUClast) on Day 14 ([3]; male, 1.5 mg/kg/day): 0.90
- accumulation ratio (AUClast) on Day 14 ([3]; male, 5 mg/kg/day): 0.98
- Dose exposure ratio ([3]; male, Day 1, dose increase 0.5 to 1.5 mg/kg/day): 1.91
- Dose exposure ratio ([3]; male, Day 1, dose increase 1.5 to 5 mg/kg/day): 3.93
- Dose exposure ratio ([3]; male, Day 14, dose increase 0.5 to 1.5 mg/kg/day): 3.89
- Dose exposure ratio ([3]; male, Day 14, dose increase 1.5 to 5 mg/kg/day): 4.26
- Cmax [3, 10]: 403 ng/mL
- Cmax at 14 day [3, 10]: 200 ng/mL
- Tmax [3, 11]: 15 min
- Tmax at 14 day [3, 11]: 16.8 min
- AUClast [3, 12]: 2126.23 ng·h/mL
- AUC(0-t) [3, 12]: 1920 ng·h/mL
- Cmax [3, 13]: 830 ng/mL
- Cmax at 14 day [3, 13]: 815 ng/mL
- Tmax [3, 14]: 19.8 min
- Tmax at 14 day [3, 14]: 4.8 min
- AUClast [3, 15]: 8347.82 ng·h/mL
- AUC(0-t) [3, 15]: 8190 ng·h/mL
- Cmax [3, 16]: 2390 ng/mL
- Cmax at 14 day [3, 16]: 3060 ng/mL
- Tmax [3, 17]: 19.8 min
- Tmax at 14 day [3, 17]: 19.8 min
- plasma exposure (AUClast) with increase in dose ([3]; rat, in vivo): dose-related increase
- MIC [4]: 0.25 to 0.5 µM (≈ 0.181 to 0.362 µg/mL)
- pIC50 (P. falciparum strain 3D7; read-out: IC50 against P. falciparum): ~9.01
- pEC50 (P. falciparum strain 3D7; blood-stage parasite growth, n=3): 8.62
- Tmax (in vivo; ip, 2 mg/kg): 15 min
- plasma concentrations quantifiable up to (in vivo; ip, 2 mg/kg): up to 24 hr
- Vss relative to normal volume of total body water (0.7 L/kg) (in vivo; iv, 2 mg/kg): 2.3 fold
- clearance (in vivo; iv, 2 mg/kg): 15.1 mL/min/kg
- half-life (in vivo; iv, 2 mg/kg): 212 min
- Tmax (in vivo; po, 10 mg/kg): 37.8 min
- bioavailability (in vivo; po, 10 mg/kg): 2%
- plasma concentrations quantifiable up to (in vivo; po, 10 mg/kg): up to 24 hr
- MIC ([5]; ATCC29737, against Staphylococcus aureus, read-out: MIC): 0.21 µg/mL
- MIC ([5]; ATCC29737, against Staphylococcus aureus, read-out: MIC Conc.): 0.288 µM
- MIC ([5]; Staphylococcus aureus, ATCC29737, range stated over five gram-positive microorganisms, read-out: minimum inhibitory concentration (MIC)): 0.25 to 0.5 µM
- MIC ([5]; against Staphylococcus aureus, read-out: MIC): 0.21 µg/mL
- MIC [6]: 0.25 to 0.5 µM (≈ 0.181 to 0.362 µg/mL)
